Results reported in patent publication US9447057B2, “Schiff bases of thiazoles: a new class of ureases inhibitors” (priority 2014, dated 2016).
“Also recorded” adds a separate entry of the source. Where two headings read alike, the source gives them in different places.

Columns and labels:
jack bean urease = jack bean urease (Canavalia ensiformis (Jack bean) (Dolichos ensiformis), UniProt P07374); assay: biochemical; format: biochemical; set-up: Vmax / Vmaxapp: unit not given here; settings: for Type of Inhibition: from Lineweaver-Burk plot; for Vmaxapp / Kmapp: in presence of inhibitor; for Kmapp / Km: substrate urea; for Km / Vmax: without inhibitor
Method: The Lineweaver-Burk plot was used to determine the type of inhibition, while Dixon plot and secondary replete were used for the determination of dissociation constants (Ki). The Ki, Km, and Vmax were determined by non-linear regression equation. The Ki value was determined from lineweaver-Burk plot. For the calculation of Ki values, initially the 1/Vmaxapp values were determine on y-axis of lineweaver-Burk plot at each junction point of lines of every inhibitor concentration. Secondly the slope of the inhibitor at concentration of each line were determined on Lineweaver-Burk plot and re-plotted against the inhibitor concentrations.
Graphs were plotted using GraFit program. Values of the correlation coefficients, slopes, intercepts, and their standard errors were obtained by the linear regression analysis using the same program. Each point in the constructed graphs represents the mean of the three experiments.
In mixed-type of inhibition, both Km and Vmax are affected.
Three different methods were applied to determine the type of inhibition and Ki values for these inhibitors. Firstly by using Lineweaver-Burk plots the reciprocal of the rate of the reaction were plotted against the reciprocal of substrate concentration to monitor the effect of inhibitor on both Km and Vmax. Secondly the secondary replots of Lineweaver-Burk plots were plotted to determine the Ki value. The Ki values were calculated by plotting the slope of each line in the Lineweaver-Burk plots against the different concentration of inhibitors.

[1] = biological target: Jack bean (Canavalia ensiformis) urease (Canavalia ensiformis (Jack bean) (Dolichos ensiformis), UniProt P07374); assay: biochemical; format: biochemical; settings: for urease inhibitory activity compared with standard thiourea: in words
Method: The Schiff bases of thiazoles were evaluated for their urease inhibitory potential by using the following protocol:
Finally the results were processed by software SoftMax Pro (Molecular Devices, CA, USA), MS-Excel and Ez-fit. The Percent inhibition was calculated from the formula given below: 100−(OD of test compound/OD of control)×100
The IC50 values were then calculated using the EZ-Fit Enzyme Kinetics program (Perrella Scientific Inc., Amherst, U.S.A.).

[2] = Jack bean urease, pH 6.8, 100 mM urea, 30° C., 15 min, read-out: IC50 ± SEM
[3] = mean of triplicate, read-out: Ki ± S.E.M.
[4] = Table 2, jack bean urease, read-out: IC50

CCOc1cccc(C=Nc2nc(-c3ccccc3)cs2)c1O [Compound 3, 2-Ethoxy-6-{[(4-phenyl-1,3-thiazol-2-yl)imino]methyl}phenol]
Ki (jack bean urease): 9.7 ± 0.007 µM
IC50 ([1]; IC50): 7.9 µM
IC50 ([1]; IC50 ± SEM): 7.9 ± 0.08 µM

Oc1ccc(C=Nc2nc(-c3ccccc3)cs2)cc1 [Compound 12, 4-{[(4-Phenyl-1,3-thiazol-2-yl)imino]methyl}phenol]
IC50 ([1]; IC50 ± SEM): 20.16 ± 0.07 µM

N-[2-Fluorophenyl) methylidene]-N- (4-phenyl-1,3- thiazol-2-yl)amine [Compound 22]
IC50 [1, 2]: 17.93 ± 0.07 µM

N-[4-(Methylsulfanyl) phenyl]methylidene}-N- (4-phenyl-1,3-thiazol-2- yl)amine [Compound 18]
IC50 [1, 2]: 6.96 ± 0.054 µM

N-[4-Ethoxyphenyl)methyl- idene]-N-(4-phenyl-1,3- thiazol-2-yl)amine [Compound 4]
Type of Inhibition (jack bean urease): mixed-type; also recorded: Mixed inhibition
Vmaxapp (jack bean urease): 12.85
Ki (jack bean urease; [3]): 9.23 ± 0.018 µM
Kmapp (jack bean urease): 2.56 mM
Km (jack bean urease): 2250 µM
Vmax (jack bean urease): 23.47
IC50 [1, 4]: 11.2 µM

N-[4-Isopropylphenyl) methylidene]-N-(4- phenyl-1,3-thiazol-2- yl)amine [Compound 9]
Type of Inhibition (jack bean urease): mixed-type; also recorded: Mixed inhibition
Vmaxapp (jack bean urease): 8.72
Ki (jack bean urease; [3]): 12.39 ± 0.0168 µM
Kmapp (jack bean urease): 3.22 mM
Km (jack bean urease): 2200 µM
Vmax (jack bean urease): 19
IC50 [1, 2]: 14.5 ± 0.16 µM
IC50 [1, 4]: 14.5 µM

N-(4-Phenyl-1,3- thiazol-2-yl)-N-[4- pyridinylmethyl- idene]amine [Compound 5]
Type of Inhibition (jack bean urease): Competitive inhibition
Vmaxapp (jack bean urease): 23.5
Ki (jack bean urease; [3]): 13.6 ± 0.0123 µM
Kmapp (jack bean urease): 5.09 mM
Km (jack bean urease): 2250 µM
Vmax (jack bean urease): 21.64
IC50 ([1]; read-out: IC50): 7.6 µM
IC50 ([1]; read-out: IC50 ± SEM): 7.6 ± 0.08 µM

NC(N)=S [Thiourea, reference compound]
Type of Inhibition (jack bean urease): Competitive inhibition
Ki (jack bean urease; [3]): 20.01 ± 0.02 µM
Kmapp (jack bean urease): 7.38 mM
Km (jack bean urease): 2250 µM

N-[Phenylmethyl- idene]-N-(4-phenyl- 1,3-thiazol-2-yl) amine [Compound 19]
IC50 [1, 2]: 16.76 ± 0.054 µM

Oc1cccc(C=Nc2nc(-c3ccccc3)cs2)c1O [Compound 23, 3-{[(4-Phenyl-1,3-thiazol-2-yl)imino]methyl}-1,2-benzenediol]
IC50 ([1]; IC50 ± SEM): 19.63 ± 0.19 µM

N-[4-Methoxyphenyl) methylidene]-N-(4- phenyl-1,3-thiazol-2- yl)amine [Compound 13]
urease inhibitory activity compared with standard thiourea [1]: significant urease inhibitory activity, comparable to standard

COc1cccc(C=Nc2nc(-c3ccccc3)cs2)c1O [Compound 6, 2-Methoxy-6-{[(4-phenyl-1,3-thiazol-2-yl)imino]methyl} phenol]
Ki (jack bean urease): 8.22 ± 0.0233 µM
IC50 ([1]; IC50): 8.8 µM

N-[2-Naphthylmethyl- idene]-N-(4-phenyl- 1,3-thiazol-2-yl)amine [Compound 7]
Type of Inhibition (jack bean urease): Competitive inhibition
Vmaxapp (jack bean urease): 29
Ki (jack bean urease; [3]): 11.89 ± 0.004 µM
Kmapp (jack bean urease): 6.28 mM
Km (jack bean urease): 2250 µM
Vmax (jack bean urease): 28.8
IC50 [1, 2]: 9.33 ± 0.02 µM
IC50 [1, 4]: 9.33 µM

C(=Nc1nc(-c2ccccc2)cs1)c1cccc2ccccc12 [Compound 21, N-[1-Naphthyl-methylidene]-N-(4-phenyl-1,3-thiazol-2-yl)amine]
IC50 [1, 2]: 23.06 ± 0.11 µM

Cc1ccc(C=Nc2nc(-c3ccccc3)cs2)o1 [Compound 10, N-[(5-Methyl-2-furyl)methylidene]-N-(4-phenyl-1,3-thiazol-2-yl)amine]
Ki (jack bean urease): 14.82 ± 0.0109 µM
IC50 [1, 2]: 17.83 ± 0.07 µM
IC50 [1, 4]: 17.8 µM

N-[2,6-Dichloro- phenyl)methylidene]-N-(4- phenyl-1,3-thiazol- 2-yl)amine [Compound 25]
IC50 [1, 2]: 22.33 ± 0.11 µM
urease inhibitory activity compared with standard thiourea [1]: significant urease inhibitory activity, comparable to standard

N-[4-Chlorophenyl) methylidene]-N-(4-phenyl- 1,3-thiazol-2-yl)amine [Compound 26]
IC50 [1, 2]: 19 ± 0.04 µM

N-[2-Chloro- phenyl)methylidene]- N-(4-phenyl-1,3- thiazol-2-yl) amine [Compound 20]
IC50 [1, 2]: 13.03 ± 0.02 µM

N-[4-(Dimethylamino) phenyl]methylidene}-N- (4-phenyl-1,3-thiazol-2- yl)amine [Compound 14]
IC50 [1, 2]: 20.36 ± 0.11 µM

N-[4-Nitrophenyl)methyl- idene]-N-(4-phenyl-1,3- thiazol-2-yl)amine [Compound 11]
IC50 [1, 2]: 32.5 ± 0.02 µM
urease inhibitory activity compared with standard thiourea [1]: significant urease inhibitory activity, comparable to standard

C(=Nc1nc(-c2ccccc2)cs1)c1c[nH]c2ccccc12 [Compound 2, N-[1H-indol-3-yl-methylidene]-N-(4-phenyl-1,3-thiazol-2-yl)amine]
Ki (jack bean urease): 9.6 ± 0.0024 µM
IC50 [1, 2]: 8.56 ± 0.027 µM
IC50 [1, 4]: 8.5 µM

Oc1ccccc1C=Nc1nc(-c2ccccc2)cs1 [Compound 16, 2-{[(4-Phenyl-1,3-thiazol-2-yl)imino]methyl} phenol]
IC50 [1, 2]: 12.4 ± 0.14 µM

Oc1ccc(Cl)cc1C=Nc1nc(-c2ccccc2)cs1 [Compound 8, 4-Chloro-2-{[(4-phenyl-1,3-thiazol-2-yl)imino]methyl} phenol]
Ki (jack bean urease): 7.89 ± 0.0142 µM
IC50 [1, 2]: 8.13 ± 0.02 µM
IC50 [1, 4]: 8.1 µM
